Experimental data as given in patent US9624201B2, “Inhibitors of bruton's tyrosine kinase” (Hoffmann-La Roche Inc., priority 2013, dated 2017).

What follows are compounds tested against Bruton's Tyrosine Kinase (inactivated state) (Homo sapiens (Human), UniProt Q06187) (assay: Bruton's Tyrosine Kinase (BTK) Inhibition TR-FRET (Time Resolved FRET) competition assay). Conditions: inactivated state of BTK; Kinase Tracer 178; incubated 18-24 h at 14° C.
Type: binding
Protocol: This BTK competition assay measures compound potency (IC50) for the inactivated state of Bruton's Tyrosine Kinase using FRET (Forster/Flouresence Resonance Energy Transfer) technology. The BTK-Eu complex was incubated on ice one hour prior to use at a starting concentration of 50 nM BTK-Bioease™: 10 nM Eu-streptavidin (Perkin-Elmer Catalog# AD0062). The assay buffer consisted of 20 mM HEPES (pH 7.15), 0.1 mM DTT, 10 mM MgCl2, 0.5 mg/ml BSA with 3% Kinase Stabilizer (Fremont Biosolutions, Catalog # STB-K02). After 1 h, the reaction mixture from above was diluted 10 fold in assay buffer to make 5 nM BTK: 1 nM Eu-Streptavidin complex (donor fluorophore). 18 μl of a mixture of 0.11 nM BTK-Eu and 0.11 nM Kinase Tracer 178 (Invitrogen, Catalog # PV5593,) with BTK-Eu alone as no negative control, was then dispensed into 384-well flat bottom plates (Greiner, 784076). Compounds to be tested in assay were prepared as 10× concentrations and serial dilution in half-log increments was performed in DMSO so as to generate 10 point curves. To initiate the FRET reaction, compounds prepared as 10× stock in DMSO was added to the plates and the plates were incubated 18-24 h at 14° C.
After the incubation the plates were read on a BMG Pherastar Fluorescent plate reader (or equivalent) and used to measure the emission energy from the europium donor fluorophore (620 nm emission) and the FRET (665 nm emission). The negative control well values were averaged to obtain the mean minimum. The positive “no inhibitor” control wells were averaged to obtain the mean maximum. Percent of maximal FRET was calculated using following equation: % max FRET=100×[(FSRcmpd−FSRmean min)/(FSRmean max−FSRmean min)] where FSR=FRET Signal ratio. % Max FRET curves were plotted in Activity Base (Excel) and the IC50(%), hill slope, z′ and % CV were determined. The mean IC50 and standard deviation will be derived from duplicate curves (singlet inhibition curves from two independent dilutions) using Microsoft Excel.

Chain of Bruton's Tyrosine Kinase (inactivated state) (Q06187 whole entry): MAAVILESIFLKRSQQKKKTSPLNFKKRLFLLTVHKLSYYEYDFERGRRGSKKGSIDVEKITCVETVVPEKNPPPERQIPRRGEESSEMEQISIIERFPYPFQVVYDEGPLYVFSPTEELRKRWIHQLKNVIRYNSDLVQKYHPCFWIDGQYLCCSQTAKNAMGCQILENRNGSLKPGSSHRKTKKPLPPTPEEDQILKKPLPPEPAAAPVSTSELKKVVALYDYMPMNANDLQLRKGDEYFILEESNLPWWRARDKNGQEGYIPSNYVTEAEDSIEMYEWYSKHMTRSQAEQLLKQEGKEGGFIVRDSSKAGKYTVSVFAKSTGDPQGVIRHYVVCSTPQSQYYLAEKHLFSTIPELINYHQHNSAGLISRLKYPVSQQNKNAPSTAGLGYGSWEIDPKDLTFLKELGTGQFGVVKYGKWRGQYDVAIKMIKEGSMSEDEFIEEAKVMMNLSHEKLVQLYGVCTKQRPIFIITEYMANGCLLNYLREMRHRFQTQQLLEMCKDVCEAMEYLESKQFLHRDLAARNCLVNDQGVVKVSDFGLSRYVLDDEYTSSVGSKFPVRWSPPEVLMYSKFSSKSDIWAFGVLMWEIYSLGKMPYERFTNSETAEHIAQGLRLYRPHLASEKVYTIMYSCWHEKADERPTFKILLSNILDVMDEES

Compound | IC50 [nM]
Cc1cc(Oc2cccc(F)c2F)ccc1-n1ncc(C(=O)c2cc3c(Br)cccc3[nH]2)c1N [Compound 1, {5-Amino-1-[4-(2,3-difluoro-phenoxy)-2-methyl-phenyl]-1H-pyrazol-4-yl}-(4-bromo-1H-indol-2-yl)-methanone] | 61.5
Cc1cc(Oc2cccc(F)c2F)ccc1-n1ncc(C(=O)c2cc3c(-c4ccccc4)cccc3[nH]2)c1N [Compound 2, {5-Amino-1-[4-(2,3-difluoro-phenoxy)-2-methyl-phenyl]-1H-pyrazol-4-yl}-(4-phenyl-1H-indol-2-yl)-methanone] | 85.1
Cc1cc(Oc2cccc(F)c2F)ccc1-n1ncc(C(=O)c2cc3c(-c4ccsc4)cccc3[nH]2)c1N [Compound 3, {5-Amino-1-[4-(2,3-difluoro-phenoxy)-2-methyl-phenyl]-1H-pyrazol-4-yl}-(4-thiophen-3-yl-1H-indol-2-yl)-methanone] | 106
Cc1cc(Oc2cccc(F)c2F)ccc1-n1ncc(C(=O)c2cc3c(-n4cccn4)cccc3[nH]2)c1N [Compound 4, {5-Amino-1-[4-(2,3-difluoro-phenoxy)-2-methyl-phenyl]-1H-pyrazol-4-yl}-(4-pyrazol-1-yl-1H-indol-2-yl)-methanone] | 20.8
Cc1cc(Oc2cccc(F)c2F)ccc1-n1ncc(C(=O)c2cc3c(-c4cccs4)cccc3[nH]2)c1N [Compound 5, {5-Amino-1-[4-(2,3-difluoro-phenoxy)-2-methyl-phenyl]-1H-pyrazol-4-yl}-(4-thiophen-2-yl-1H-indol-2-yl)-methanone] | 214
Cc1cc(Oc2cccc(F)c2F)ccc1-n1ncc(C(=O)c2cc3c(C(=O)N4CCOCC4)cccc3[nH]2)c1N [Compound 6, {5-Amino-1-[4-(2,3-difluoro-phenoxy)-2-methyl-phenyl]-1H-pyrazol-4-yl}-[4-(morpholine-4-carbonyl)-1H-indol-2-yl]-methanone] | 11.9
Cc1cc(Oc2cccc(F)c2F)ccc1-n1ncc(C(=O)c2cc3c(-c4ccccn4)cccc3[nH]2)c1N [Compound 8, {5-Amino-1-[4-(2,3-difluoro-phenoxy)-2-methyl-phenyl]-1H-pyrazol-4-yl}-(4-pyridin-2-yl-1H-indol-2-yl)-methanone] | 6.15
Cc1cc(Oc2cccc(F)c2F)ccc1-n1ncc(C(=O)c2cc3c(Cc4ccccc4)cccc3[nH]2)c1N [Compound 9, {5-Amino-1-[4-(2,3-difluoro-phenoxy)-2-methyl-phenyl]-1H-pyrazol-4-yl}-(4-benzyl-1H-indol-2-yl)-methanone] | 33.1
Cc1cc(Oc2cccc(F)c2F)ccc1-n1ncc(C(=O)c2cc3c(-c4cn[nH]c4)cccc3[nH]2)c1N [Compound 10, {5-Amino-1-[4-(2,3-difluoro-phenoxy)-2-methyl-phenyl]-1H-pyrazol-4-yl}-[4-(1H-pyrazol-4-yl)-1H-indol-2-yl]-methanone] | 4.21
Cc1cc(Oc2cccc(F)c2F)ccc1-n1ncc(C(=O)c2cc3c(-c4cccc(C#N)c4)cccc3[nH]2)c1N [Compound 11, 3-(2-{5-Amino-1-[4-(2,3-difluoro-phenoxy)-2-methyl-phenyl]-1H-pyrazole-4-carbonyl}-1H-indol-4-yl)-benzonitrile] | 59.1
Cc1cc(Oc2cccc(F)c2F)ccc1-n1ncc(C(=O)c2cc3c(-c4cccc(Cl)c4)cccc3[nH]2)c1N [Compound 12, {5-Amino-1-[4-(2,3-difluoro-phenoxy)-2-methyl-phenyl]-1H-pyrazol-4-yl}-[4-(3-chloro-phenyl)-1H-indol-2-yl]-methanone] | 201
Cc1cc(Oc2cccc(F)c2F)ccc1-n1ncc(C(=O)c2cc3c(Cc4cccc(C#N)c4)cccc3[nH]2)c1N [Compound 13, 3-(2-{5-Amino-1-[4-(2,3-difluoro-phenoxy)-2-methyl-phenyl]-1H-pyrazole-4-carbonyl}-1H-indol-4-ylmethyl)-benzonitrile] | 29.5
Cc1cc(Oc2cccc(C#N)c2)ccc1-n1ncc(C(=O)c2cc3c(-c4cn[nH]c4)cccc3[nH]2)c1N [Compound 14, 3-(4-{5-Amino-4-[4-(1H-pyrazol-4-yl)-1H-indole-2-carbonyl]-pyrazol-1-yl}-3-methyl-phenoxy)-benzonitrile] | 8.38
Cc1cc(Oc2cccc(C#N)c2)ccc1-n1ncc(C(=O)c2cc3c(C(=O)N4CCOCC4)cccc3[nH]2)c1N [Compound 15, 3-(4-{5-Amino-4-[4-(morpholine-4-carbonyl)-1H-indole-2-carbonyl]-pyrazol-1-yl}-3-methyl-phenoxy)-benzonitrile] | 93.6
Cc1cc(Oc2cccc(C#N)c2)ccc1-n1ncc(C(=O)c2cc3c(C(=O)N4CCN(C)CC4)cccc3[nH]2)c1N [Compound 16, 3-(4-{5-Amino-4-[4-(4-methyl-piperazine-1-carbonyl)-1H-indole-2-carbonyl]-pyrazol-1-yl}-3-methyl-phenoxy)-benzonitrile] | 39.1
COc1cccc(Cc2cccc3[nH]c(C(=O)c4cnn(-c5ccc(Oc6cccc(C#N)c6)cc5C)c4N)cc23)c1 [Compound 17, 3-(4-{5-Amino-4-[4-(3-methoxy-benzyl)-1H-indole-2-carbonyl]-pyrazol-1-yl}-3-methyl-phenoxy)-benzonitrile] | 21.1
Cc1cc(Oc2cccc(C#N)c2)ccc1-n1ncc(C(=O)c2cc3c(CC#N)cccc3[nH]2)c1N [Compound 20, 3-{4-[5-Amino-4-(4-cyanomethyl-1H-indole-2-carbonyl)-pyrazol-1-yl]-3-methyl-phenoxy}-benzonitrile] | 8.45
CNC(=O)c1cccc2[nH]c(C(=O)c3cnn(-c4ccc(Oc5cccc(C#N)c5)cc4C)c3N)cc12 [Compound 21, 2-{5-Amino-1-[4-(3-cyano-phenoxy)-2-methyl-phenyl]-1H-pyrazole-4-carbonyl}-1H-indole-4-carboxylic acid methylamide] | 13
{5-Amino-1-[4-(2,3-difluoro-phenoxy)-2-methyl-phenyl]-1H-pyrazol-4-yl}-[4-(1-methyl-1H-pyrazol-4-yl)-1H-indol-2-yl]-methanone [Compound 7] | 65.3
